According to article PMC5421785, “Citrullination only infrequently impacts peptide binding to HLA class II MHC” (PLoS ONE, 2017):
Read-outs that look alike come from different tables or passages of the source. Square brackets hold non-standard residues; d marks the D form. Ends that are not written are not given here. Peptide text beside a SMILES is read from it. Cit = NC(=O)NCCC[C@H](N)C(=O)O

What was measured:
[1] = target: T1, HLA-DRB1*01:01 (Homo sapiens, UniProt P01903+P01911, A100R/D57E/F55L/F60I/F76Y/I96L/L162R/M171V/P40L/Q125E/R42F/V115G/Y59C); assay: HLA class II peptide binding, inhibition of radiolabeled peptide binding to purified MHC; conditions: for DRB1*01:01 binding capacity, WT/cit ratio: ratio of WT IC50 to Cit IC50
T1 construct: EBV transformed homozygous cell lines were used as sources of MHC molecules; endogenous in cells; host or cells: EBV transformed homozygous cell lines

[2] = target: T2, HLA-DRB1*04:01 (Homo sapiens, UniProt P01903+P01911, A100K/A169T/F76Y/I96L/K127E/L162R/M171V/N62H/P40V/Q125Y/R42H/S133A/S149N/S66Y/V115G/V209L/W38E); assay: as above; conditions: for DRB1*04:01 binding capacity, WT/cit ratio: ratio of WT IC50 to Cit IC50
T2 construct: EBV transformed homozygous cell lines were used as sources of MHC molecules; endogenous in cells; host or cells: EBV transformed homozygous cell lines

[3] = citrullinated 15-mer (X), purified MHC, inhibition of radiolabeled peptide binding, dash = IC50 >40,000 nM, read-out: DRB1*01:01 binding capacity, Cit peptide (IC50 nM)
[4] = citrullinated 15-mer (X), purified MHC, inhibition of radiolabeled peptide binding, dash = IC50 >40,000 nM, read-out: DRB1*04:01 binding capacity, Cit peptide (IC50 nM)
[5] = wild-type (unmodified Arg) 15-mer peptide, purified HLA-DRB1*01:01, read-out: DRB1*01:01 binding capacity, WT peptide (IC50 nM)
[6] = wild-type (unmodified Arg) 15-mer peptide, purified HLA-DRB1*04:01, read-out: DRB1*04:01 binding capacity, WT peptide (IC50 nM)
[7] = citrullinated 15-mer peptide (X = citrulline), purified HLA-DRB1*01:01, read-out: DRB1*01:01 binding capacity, Cit peptide (IC50 nM)
[8] = citrullinated 15-mer peptide (X = citrulline), purified HLA-DRB1*04:01, read-out: DRB1*04:01 binding capacity, Cit peptide (IC50 nM)
[9] = >1 = citrullination increases binding

Molecule: CC(C)C[C@H](NC(=O)[C@H](C)NC(=O)[C@H](CO)NC(=O)CN)C(=O)N[C@@H](CCCNC(N)=O)C(=O)N1CCC[C@H]1C(=O)N[C@@H](CO)C(=O)N[C@H](C(=O)N[C@@H](CO)C(=O)N[C@@H](CCCNC(=N)N)C(=O)N[C@@H](CO)C(=O)N[C@@H](CC(C)C)C(=O)N[C@@H](Cc1ccc(O)cc1)C(=O)N[C@@H](C)C(=O)N[C@@H](CO)C(=O)O)[C@@H](C)O [GSALXPSTSRSLYAS]
- IC50 [1, 3]: 12 nM
- IC50 [2, 4]: 1550 nM

Molecule: MALDIEIATYRKLLE [Vimentin 391 WT]
- IC50 [1, 5]: 86 nM
- IC50 [2, 6]: 5590 nM

Molecule: CC(C)C[C@H](NC(=O)[C@H](C)NC(=O)[C@H](CO)NC(=O)CNC(=O)[C@H](CC(C)C)NC(=O)[C@H](CO)NC(=O)[C@H](Cc1ccc(O)cc1)NC(=O)[C@@H](NC(=O)[C@H](CCCNC(N)=O)NC(=O)[C@@H](NC(=O)[C@H](CO)NC(=O)[C@@H](NC(=O)[C@@H](NC(=O)[C@@H](N)C(C)C)[C@@H](C)O)[C@@H](C)O)[C@@H](C)O)[C@@H](C)O)C(=O)N[C@@H](CCCNC(=N)N)C(=O)O [VTTSTXTYSLGSALR] (H-VTTST[Cit]TYSLGSALR-OH)
- IC50 [1, 3]: 7.2 nM
- IC50 [2, 4]: 1480 nM

Molecule: GPSGKDGPKGARGDS [Collagen 921 WT]
- IC50 [1, 5]: > 40000 nM
- IC50 [2, 6]: > 40000 nM

Molecule: GAEGPPGPQGLAGQR [Collagen 966 WT]
- IC50 [1, 5]: > 40000 nM
- IC50 [2, 6]: > 40000 nM

Molecule: CSCC[C@H](NC(=O)[C@H](CCCNC(=N)N)NC(=O)[C@H](CCCNC(N)=O)NC(=O)[C@H](Cc1ccc(O)cc1)NC(=O)[C@H](CO)NC(=O)[C@H](CO)NC(=O)[C@H](CO)NC(=O)[C@H](CO)NC(=O)[C@@H](NC(=O)[C@H](CO)NC(=O)[C@H](CCCNC(=N)N)NC(=O)[C@@H](NC(=O)[C@H](CO)NC(=O)[C@@H](N)CCSC)[C@@H](C)O)C(C)C)C(=O)N[C@@H](Cc1ccccc1)C(=O)O [MSTRSVSSSSYXRMF] (H-MSTRSVSSSSY[Cit]RMF-OH)
- IC50 [1, 3]: 1080 nM
- IC50 [2, 4]: 980 nM

Molecule: CSCC[C@H](NC(=O)[C@H](CCC(N)=O)NC(=O)[C@H](CCCNC(=N)N)NC(=O)[C@H](CCC(=O)O)NC(=O)[C@H](CC(C)C)NC(=O)[C@H](CO)NC(=O)[C@H](CCC(=O)O)NC(=O)[C@H](CC(N)=O)NC(=O)[C@@H](NC(=O)CNC(=O)[C@H](CCCCN)NC(=O)[C@H](CC(C)C)NC(=O)[C@H](C)NC(=O)[C@@H](N)CC(=O)O)[C@@H](C)O)C(=O)N[C@@H](CCCNC(N)=O)C(=O)O [DALKGTNESLERQMX] (H-DALKGTNESLERQM[Cit]-OH)
- IC50 [1, 7]: 24200 nM
- IC50 [2, 8]: 17500 nM

Molecule: CSCC[C@H](NC(=O)[C@H](CCCNC(N)=O)NC(=O)[C@H](CCCNC(=N)N)NC(=O)[C@H](Cc1ccc(O)cc1)NC(=O)[C@H](CO)NC(=O)[C@H](CO)NC(=O)[C@H](CO)NC(=O)[C@H](CO)NC(=O)[C@@H](NC(=O)[C@H](CO)NC(=O)[C@H](CCCNC(=N)N)NC(=O)[C@@H](NC(=O)[C@H](CO)NC(=O)[C@@H](N)CCSC)[C@@H](C)O)C(C)C)C(=O)N[C@@H](Cc1ccccc1)C(=O)O [MSTRSVSSSSYRXMF] (H-MSTRSVSSSSYR[Cit]MF-OH)
- IC50 [1, 3]: 672 nM
- IC50 [2, 4]: 443 nM

Molecule: REGSPGADGPPGRDG [Collagen 1036 WT]
- IC50 [1, 5]: > 40000 nM
- IC50 [2, 6]: > 40000 nM

Molecule: CC[C@H](C)[C@H](NC(=O)[C@H](CC(C)C)NC(=O)[C@H](CC(C)C)NC(=O)[C@@H](NC(=O)[C@H](CCCNC(N)=O)NC(=O)[C@H](CCCCN)NC(=O)[C@H](CO)NC(=O)[C@H](Cc1c[nH]cn1)NC(=O)[C@@H](N)[C@@H](C)O)[C@@H](C)O)C(=O)N[C@@H](CCCCN)C(=O)N[C@H](C(=O)N[C@H](C(=O)N[C@@H](CCC(=O)O)C(=O)N[C@H](C(=O)N[C@@H](CCCNC(=N)N)C(=O)O)[C@@H](C)O)C(C)C)[C@@H](C)O [THSKXTLLIKTVETR] (H-THSK[Cit]TLLIKTVETR-OH)
- IC50 [1, 7]: 176 nM
- IC50 [2, 8]: 6430 nM

Molecule: CSCC[C@H](NC(=O)[C@H](CCC(N)=O)NC(=O)[C@H](CCCNC(N)=O)NC(=O)[C@H](CCC(=O)O)NC(=O)[C@H](CC(C)C)NC(=O)[C@H](CO)NC(=O)[C@H](CCC(=O)O)NC(=O)[C@H](CC(N)=O)NC(=O)[C@@H](NC(=O)CNC(=O)[C@H](CCCCN)NC(=O)[C@H](CC(C)C)NC(=O)[C@H](C)NC(=O)[C@@H](N)CC(=O)O)[C@@H](C)O)C(=O)N[C@@H](CCCNC(=N)N)C(=O)O [DALKGTNESLEXQMR] (H-DALKGTNESLE[Cit]QMR-OH)
- IC50 [1, 7]: > 40000 nM
- IC50 [2, 8]: 16600 nM

Molecule: CC[C@H](C)[C@H](NC(=O)[C@@H](NC(=O)[C@@H](NC(=O)[C@H](CCCCN)NC(=O)CN)[C@@H](C)O)C(C)C)C(=O)N[C@@H](CCC(=O)O)C(=O)N[C@@H](Cc1ccc(O)cc1)C(=O)N[C@@H](CCCNC(N)=O)C(=O)N[C@@H](CO)C(=O)N[C@@H](CCC(N)=O)C(=O)N[C@@H](CCCCN)C(=O)N[C@H](C(=O)N[C@@H](CO)C(=O)N[C@@H](CCCNC(=N)N)C(=O)N[C@@H](CC(C)C)C(=O)O)[C@@H](C)O [GKTVIEYXSQKTSRL] (H-GKTVIEY[Cit]SQKTSRL-OH)
- IC50 ([1]; citrullinated peptide as listed (X at Cit position), read-out: DRB1*01:01 binding capacity Cit peptide (IC50 nM)): 7.1 nM
- IC50 ([1]; value of the wild-type (non-citrullinated) counterpart of the listed peptide, read-out: DRB1*01:01 binding capacity WT peptide (IC50 nM)): 29 nM
- IC50 ([2]; citrullinated peptide as listed (X at Cit position), read-out: DRB1*04:01 binding capacity Cit peptide (IC50 nM)): 153 nM
- IC50 ([2]; value of the wild-type (non-citrullinated) counterpart of the listed peptide, read-out: DRB1*04:01 binding capacity WT peptide (IC50 nM)): 646 nM

Molecule: CSCC[C@H](NC(=O)[C@H](CCC(=O)O)NC(=O)[C@H](CCC(=O)O)NC(=O)[C@H](CCC(=O)O)NC(=O)[C@H](Cc1ccc(O)cc1)NC(=O)[C@H](CC(C)C)NC(=O)[C@H](CC(=O)O)NC(=O)CNC(=O)[C@H](CC(C)C)NC(=O)[C@H](CCCNC(=N)N)NC(=O)[C@H](CO)NC(=O)[C@H](CCCCN)NC(=O)CNC(=O)[C@@H](N)CCC(N)=O)C(=O)N[C@@H](CCCNC(N)=O)C(=O)O [QGKSRLGDLYEEEMX] (H-QGKSRLGDLYEEEM[Cit]-OH; N-terminus and C-terminus assumed)
- IC50 [1, 3]: > 40000 nM
- DRB1*01:01 binding capacity, WT/cit ratio [1]: 0.7
- IC50 [2, 4]: > 40000 nM
- DRB1*04:01 binding capacity, WT/cit ratio [2]: 1.0

Molecule: CC(C)C[C@H](NC(=O)CNC(=O)[C@H](CCC(N)=O)NC(=O)[C@@H]1CCCN1C(=O)CNC(=O)[C@@H]1CCCN1C(=O)[C@@H]1CCCN1C(=O)CNC(=O)[C@H](CCC(=O)O)NC(=O)[C@H](C)NC(=O)CN)C(=O)N[C@@H](C)C(=O)NCC(=O)N[C@@H](CCC(N)=O)C(=O)N[C@@H](CCCNC(N)=O)C(=O)O [GAEGPPGPQGLAGQX] (H-GAEGPPGPQGLAGQ[Cit]-OH; N-terminus and C-terminus assumed)
- IC50 [1, 7]: > 40000 nM
- DRB1*01:01 binding capacity, WT/cit ratio [1, 9]: 1.0
- IC50 [2, 8]: > 40000 nM
- DRB1*04:01 binding capacity, WT/cit ratio [2, 9]: 1.0

Molecule: CC(C)C[C@H](NC(=O)CNC(=O)[C@@H]1CCCN1C(=O)[C@H](Cc1ccccc1)NC(=O)CNC(=O)[C@H](CCCNC(N)=O)NC(=O)[C@@H](N)CCC(=O)O)C(=O)N1CCC[C@H]1C(=O)NCC(=O)N1CCC[C@H]1C(=O)N[C@@H](CO)C(=O)NCC(=O)N[C@@H](CCC(=O)O)C(=O)N1CCC[C@H]1C(=O)NCC(=O)O [EXGFPGLPGPSGEPG] (H-E[Cit]GFPGLPGPSGEPG-OH)
- IC50 [1, 7]: 2210 nM
- IC50 [2, 8]: > 40000 nM

Molecule: CC(C)C[C@H](NC(=O)[C@H](C)NC(=O)[C@H](CC(=O)O)NC(=O)[C@H](CC(N)=O)NC(=O)[C@H](CC(N)=O)NC(=O)[C@H](CCCNC(=N)N)NC(=O)[C@H](CC(N)=O)NC(=O)[C@H](C)NC(=O)[C@H](C)NC(=O)[C@H](CCC(=O)O)NC(=O)[C@H](CO)NC(=O)[C@H](CC(C)C)NC(=O)[C@H](CC(=O)O)NC(=O)[C@H](C)N)C(=O)N[C@@H](CCCNC(N)=O)C(=O)O [ADLSEAANRNNDALX] (H-ADLSEAANRNNDAL[Cit]-OH)
- IC50 [1, 3]: 6180 nM
- IC50 [2, 4]: 23300 nM

Molecule: ERQMREMEENFAVEA [Vimentin 341 WT]
- IC50 [1, 5]: 11100 nM
- IC50 [2, 6]: 912 nM

Molecule: CC(C)C[C@H](NC(=O)[C@H](CCCNC(N)=O)NC(=O)[C@@H](NC(=O)[C@H](C)NC(=O)[C@H](CO)NC(=O)[C@H](CO)NC(=O)[C@H](CCCNC(=N)N)NC(=O)[C@@H](NC(=O)[C@H](C)NC(=O)[C@@H](N)Cc1ccc(O)cc1)[C@@H](C)O)C(C)C)C(=O)N[C@@H](CCCNC(=N)N)C(=O)N[C@@H](CO)C(=O)N[C@@H](CO)C(=O)N[C@H](C(=O)N1CCC[C@H]1C(=O)O)C(C)C [YATRSSAVXLRSSVP] (H-YATRSSAV[Cit]LRSSVP-OH)
- IC50 [1, 3]: 41 nM
- IC50 [2, 4]: 3220 nM
